Holding throughout (experiment): growth of human tumour cells (NCI), 48 h
Experiment [1] concerns A549 NSCLC.
Experiment [2] concerns CAKI-1 renal.
Experiment [3] deals with COLO 205 colon.
The subject of experiment [4] is HCT-15 colon.
The subject of experiment [5] is HOP-62 NSCLC.
For experiment [6], the system named is HOP-92 NSCLC.
In experiment [7] the test system is HT29 colon.
Experiment [8] relates to KM12 colon.
In experiment [9] the test system is NCI-H226 lung.
Experiment [10] relates to OVCAR-5 ovarian.
The subject of experiment [11] is OVCAR-8 ovarian.
In experiment [12] the test system is SF-539 CNS.
In experiment [13] the test system is SK-MEL-2 melanoma.
In experiment [14] the test system is SW-620 colon.
Experiment [15] relates to U251 CNS.

We go through 8 compounds from PubChem BioAssay (NCI).

Structures are written as SMILES.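 Compound exposure: 48 hours, 5 concentrations, 96-well plates. TGI denotes the concentration required for complete inhibition of growth.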

Regarding `CS(C)(=O)=Nn1c(=O)n2n(c1=O)[C@H]1CC[C@@H]2C1`, the TGI in experiment [1], in experiment [2], in experiment [3], in experiment [4], in [5] and in experiment [6] was more than 100 µM each time. The TGI in experiment [7], in experiment [8], in experiment [9], in [10], in experiment [11] and in experiment [12] was more than 100 µM in each case. The TGI in [13], in experiment [14] and in experiment [15] was more than 100 µM each time.
For the compound `O=C1C=CC2(C=C1)O[C@H](CCc1ccccc1)[C@@H](CCc1ccccc1)O2`, the TGI in experiment [1] was more than 100 µM; in experiment [2], more than 100 µM; in [3] it was more than 100 µM; in [4], more than 100 µM; in [5], more than 100 µM; in [6] it was 94.3 µM. Also, the TGI in [7], in experiment [8], in [9], in experiment [10], in [11] and in experiment [12] was more than 100 µM throughout. The values for the TGI in experiment [13], in experiment [14] and in [15] were more than 100 µM, more than 100 µM and 38.2 µM, respectively.
For the compound `CC1=CC2=C(C=O)C(=O)[C@](C)(O)[C@@H](O)C2=CO1`, the TGI in experiment [1] was more than 90.8 µM; in experiment [2], more than 100 µM; in [3], more than 82 µM; in [4] it was more than 100 µM; in [5], 69 µM; in [6], more than 100 µM. Besides, the TGI in experiment [7] was more than 100 µM; in experiment [8], more than 100 µM; in [9] it was 65.4 µM; in [10], more than 100 µM; in experiment [11], more than 100 µM; in [12] it was 97.5 µM. The TGI is 62.2 µM in experiment [13], more than 77.6 µM in experiment [14] and more than 76.8 µM in experiment [15].
Take `COc1cc2c(cc1OCCCN1CCOCC1)N=C[C@@H]1CCCN1C2=O`: the TGI in experiment [1] was more than 100 µM; in experiment [2], 26.3 µM; in experiment [3], 4.55 µM; in experiment [4] it was 74.2 µM; in experiment [5], 62.8 µM; in experiment [6] it was 7.4 µM. Besides, the TGI in experiment [7] turned out to be 47.7 µM; in experiment [8], 43.4 µM; in [9], 65.9 µM; in experiment [10], 59.9 µM; in experiment [11] it was 98.3 µM; in experiment [12], 22.3 µM. Besides, the TGI was more than 100 µM in [13], 13.8 µM in experiment [14] and more than 100 µM in experiment [15].
`Cc1ccc(C(=O)c2[nH]c(NCc3ccccc3)c(C(=S)Nc3ccccc3)c2N)cc1`: the TGI stood at 22.1 µM in [1]; 27.5 µM in experiment [2]; 18 µM in experiment [3]; 4.33 µM in experiment [4]; 29.2 µM in [5]; 18.9 µM in experiment [6]. Further, the TGI in experiment [7] came out at 10.5 µM; in experiment [8], 6.34 µM; in experiment [9], 32.3 µM; in experiment [10], 27 µM; in experiment [11], 26.1 µM; in [12] it was 5.63 µM. For the same compound, the values for the TGI in [13], in experiment [14] and in [15] were 22.8 µM, 5.19 µM and 15.6 µM, respectively.
Consider `C=C1C(=O)OC2/C=C(\CO)C3OC3C3OC3(C)CC(OC(=O)/C(=C/C)COC(C)=O)C12` (stereo not given), for which the TGI in experiment [1] is 36.9 µM; in experiment [2], 4.67 µM; in experiment [3], 3.06 µM; in [4], 6.47 µM; in [5] it was 40.4 µM; in [6] it was 4.35 µM. The TGI in experiment [7] was determined as 15.3 µM; in [8], 19 µM; in experiment [9] it was 40.8 µM; in experiment [10], 28.7 µM; in experiment [11], 6.22 µM; in [12], 7.38 µM. Moreover, the values for the TGI in [13], in experiment [14] and in [15] were 6.78 µM, 2.8 µM and 16.8 µM, respectively.
With `COc1ccc2[nH]c(=O)cc(C)c2c1[N+](=O)[O-]`, the TGI in [1], in [2], in experiment [3], in [4], in experiment [5] and in experiment [6] was more than 100 µM in each case. Besides, the TGI in experiment [7], in experiment [8], in experiment [9], in experiment [10], in experiment [11] and in experiment [12] was more than 100 µM each time. The TGI in experiment [13], in [14] and in [15] was more than 100 µM each time.
`Nc1nc(N)c2ncn(Cc3ccccc3CO)c2n1`: the TGI in [1], in [2], in experiment [3], in experiment [4], in experiment [5] and in experiment [6] was more than 100 µM each time. Moreover, the TGI in experiment [7], in experiment [8], in [9], in experiment [10], in [11] and in experiment [12] was more than 100 µM each time. The TGI in experiment [13], in experiment [14] and in experiment [15] was more than 100 µM throughout.
